{"source": "patent US20070172425A1", "about": "“Testing cell cycle regulation effect of a compound using a hollow fibre cell implant” (priority 2003, published 2007)", "key": {"HCT116 cells [1]": {"tested_on": "HCT116 cells", "test": "Inhibition of topotecan induced G2 arrest in vitro (FACS)", "format": "cell-based", "details": "for inhibition of topotecan induced G2 arrest: 24 h", "quoted_text": "(§3) The compounds were added to the cells after G2 arrest induced by 18 h topotecan treatment at the indicated concentrations and incubated for a period of 24 h. Cells were then harvested and analyzed by FACS.\n(§4) Fixed cells were centrifuged at 1600 rpm for 5 minutes and the ETOH was decanted. They were then washed with 2 ml of PBS, recentrifuged and decanted. The cells were then stained with propidium iodide. Cell cycle study was performed using a FACSCalibur (Becton Dickinson) using Cell-QuestPro software. Cell cycle distribution was determined using either Modfit (Verity software house, ME, USA) or WinMDI (Joseph Trotter, Scripps Institute) software."}, "H460 cells [2]": {"tested_on": "H460 cells", "test": "Inhibition of topotecan induced G2 arrest in vitro (FACS)", "format": "cell-based", "details": "24 h", "quoted_text": "as §3, §4"}, "H460 cells [3]": {"tested_on": "H460 cells", "test": "Topotecan induced G2 arrest in vitro (topotecan titration, FACS)", "format": "cell-based", "description": "(§1) To perform the experiments, cells were grown to 50% confluency in 10 cm dishes. The cells were then dosed with topotecan at indicated concentrations for 18 hours. Cells were then harvested and the G2 arrest was analyzed by FACS analysis 24 h later.\n(§2) The cells were then stained with propidium iodide."}, "HCT116 cells [4]": {"tested_on": "HCT116 cells", "test": "Topotecan induced G2 arrest in vitro (topotecan titration, FACS)", "format": "cell-based", "description": "as §1, §2"}, "HCT116 cells [5]": {"tested_on": "HCT116 cells", "test": "Double thymidine block and G2 arrest with brief topotecan treatment in vitro", "format": "cell-based", "details": "1 h treatment, 24 h after block removal", "description": "We adapted the study of G2 checkpoint regulation to the study of other cell cycle regulation pathways. Cells were first synchronized at the G1/S boundary by means of a double thymidine block (FIG. 7A-F). After synchronization, cells were harvested at indicated time points for observation of cell cycle progression (7B, C). To arrest cells at G2 checkpoint, the synchronized cells were incubated with topotecan at indicated concentrations for 1 h, and the topotecan was added 30 to 60 minutes after the release of double thymidine block. Topotecan treated cells were then harvested 24 h after double thymidine block and analyzed with FACS. Alternatively, at the end of double thymidine block, fibres were implanted to mice subcutaneously (4 fibres per mouse); fibres were retrieved from mice at the specified time points (8 fibres per time point) and analyzed by FACS. Control fibers without double thymidine treatment (8A, F) were also included.\nCells were plated onto 10-cm dishes on day 1 such that 30% confluence is reached on day 2. In hollow fibre experiments, loaded fibres were made on day 1, and incubated in the dishes overnight. On day 2, thymidine was added to the dishes to a final concentration of 2 mM. […] Cells were harvested 24 hours after the second thymidine treatment, and analyzed by FACS analysis. […]"}, "HCT116 cells [6]": {"tested_on": "HCT116 cells", "test": "In vivo hollow fibre PD model, topotecan G2 arrested cells implanted in mice (FACS)", "details": "for 0 h G2 % / 24 h % G1 / 24 h % G2 / Δ% G2/ Δ% G1 / SΔ % G2: Control TOP (vehicle); for SΔ % G2: % G2 at 24 h - % G2 at 0 h", "quoted_text": "Specifically, HCT116 cells were first arrested at G2 with topotecan (TOP) treatment. At the end of 18 h topotecan treatment, fibres were implanted subcutaneously to mice with 4 fibres per mouse (FIG. 3A). Control fibres without topotecan treatment were also included (FIGS. 3F, G). […] The first injection was administered immediately after fibre implantation while the second injection was given 5 hours later. Mice in the TOP alone control group (n=2) received vehicle (0.9% NaCl) only (FIG. 3D). After implantation, fibres (8 fibres per time point) were retrieved from mice at indicated time points. Cells were then flushed out from the fibres and analyzed by FACS and immunoblotting.\nAt indicated time points, fibres were removed from mice, wiped with gauze and placed in petri dishes or 6 well plates containing enough warm media to cover fibres. Both ends of the fibres were then cut open using forceps and scissors. The fibres were flushed twice with a 200 μL pipette filled with medium by inserting into fibre opening. The medium containing the cells were collected and centrifuged for 3-minutes at 1600 rpm. The supernatant was discarded and 1 mL of trypsin was added onto the pellets and mixed until single cell suspension is obtained. Then, 5 mL of serum rich medium was added to the cell suspension and centrifuged. The supernatant was then decanted leaving approximately 200 μL of cell suspension. The suspension was then added. drop wise while vortexing to 5 mL of ice cold 70% ETOH. Cells were then fixed at −20° C. for a minimum of 1 hour. The cells obtained were then processed according to FACS staining protocol. 3-8 fibres from each time point were typically used for FACS analysis."}, "tumor": {"tested_on": "tumor", "details": "100 and 200 mg/kg, intraperitoneal injection, literature; cited from earlier work"}, "[7]": {"details": "TOP alone (50 nM, 18 h), 30 h, mean"}, "[8]": {"details": "TOP alone (50 nM, 18 h), 30 h, single replicates, listed as TOP"}}, "note": "Values joined by “and” are separate entries in the source; they are usually repeats but may differ in a detail not shown here. Identical values can stand only once."}
{"smiles": "Cn1c2ccccc2c2c3c(c4c5ccccc5n(CCC#N)c4c21)CNC3=O", "note": "[Go6976]", "values": [{"measurement": "inhibition of topotecan induced G2 arrest", "setting": "HCT116 cells [1]; 1.3 μM, HCT116 (FIG. 2H)", "value": "effectively inhibits G2 arrest"}, {"measurement": "toxicity to cells (microscope, FACS)", "setting": "HCT116 cells [1]; Go6976 alone at the tested concentration", "value": "does not show any signs of toxicity"}, {"measurement": "inhibition of topotecan induced G2 arrest", "setting": "H460 cells [2]; 5 μM, H460 (FIG. 2D)", "value": "effectively inhibits G2 arrest"}]}
{"smiles": "CC[C@@]1(O)C(=O)OCc2c1cc1n(c2=O)Cc2cc3c(CN(C)C)c(O)ccc3nc2-1", "note": "[Topotecan]", "values": [{"measurement": "time at which cells begin to reenter the cell cycle after topotecan treatment", "setting": "H460 cells [3]; H460", "value": "about 7 h"}, {"measurement": "concentration that sufficiently arrests cells at the G2 checkpoint", "setting": "H460 cells [3]; H460, 18 h treatment", "value": 50, "unit": "nM"}, {"measurement": "time at which cells begin to reenter the cell cycle after topotecan treatment", "setting": "HCT116 cells [4]; HCT116", "value": "~9", "unit": "h"}, {"measurement": "minimal concentration required to achieve an efficient G2 arrest", "setting": "HCT116 cells [4]; HCT116, 18 h treatment", "value": 25, "unit": "nM"}, {"measurement": "G2 arrest of double thymidine block synchronized cells", "setting": "HCT116 cells [5]; 2 μM", "value": "complete G2 arrest"}, {"measurement": "S phase arrest of double thymidine block synchronized cells", "setting": "HCT116 cells [5]; 5 μM", "value": "noticeable S phase arrest"}, {"measurement": "G2 arrest at 30 hour after implantation", "setting": "HCT116 cells [6]; 30 nM topotecan, 30 h", "value": "~70", "unit": "%"}, {"measurement": "cells arrested at G2/M phase at time 0 h", "setting": "HCT116 cells [6]; 50 nM topotecan 18 h, HCT116 in hollow fibres, 0 h", "value": "About 90%"}, {"measurement": "G2 arrest at 30 hour after implantation", "setting": "HCT116 cells [6]; 50 nM topotecan, 30 h", "value": "about 90%"}, {"measurement": "0 h G2 %", "setting": "HCT116 cells [6]; Exp. 1, 0 h", "value": 83.00, "unit": "%"}, {"measurement": "24 h % G1", "setting": "HCT116 cells [6]; Exp. 1, 24 h", "value": 23.00, "unit": "%"}, {"measurement": "24 h % G2", "setting": "HCT116 cells [6]; Exp. 1, 24 h", "value": 71.00, "unit": "%"}, {"measurement": "Δ% G2/ Δ% G1", "setting": "HCT116 cells [6]; Exp. 1, 24 h", "value": 3.09}, {"measurement": "SΔ % G2", "setting": "HCT116 cells [6]; Exp. 1", "value": "−12.00", "unit": "%"}, {"measurement": "0 h G2 %", "setting": "HCT116 cells [6]; Exp. 2, 0 h", "value": 69.00, "unit": "%"}, {"measurement": "24 h % G1", "setting": "HCT116 cells [6]; Exp. 2, 24 h", "value": 16.00, "unit": "%"}, {"measurement": "24 h % G2", "setting": "HCT116 cells [6]; Exp. 2, 24 h", "value": 58.00, "unit": "%"}, {"measurement": "Δ% G2/ Δ% G1", "setting": "HCT116 cells [6]; Exp. 2, 24 h", "value": 3.63}, {"measurement": "SΔ % G2", "setting": "HCT116 cells [6]; Exp. 2", "value": "−11.00", "unit": "%"}, {"measurement": "% G1, Mean", "setting": "HCT116 cells [6]; [7]", "value": 7.9, "unit": "%"}, {"measurement": "% G2, Mean", "setting": "HCT116 cells [6]; [7]", "value": 88.7, "unit": "%"}, {"measurement": "Odd (% G2/% G1), Mean", "setting": "HCT116 cells [6]; [7]", "value": 11.4}, {"measurement": "% G1", "setting": "HCT116 cells [6]; [8]", "value": "7.3% and 7.2% and 9.0%"}, {"measurement": "% G2", "setting": "HCT116 cells [6]; [8]", "value": "88.1% and 90.2% and 87.9%"}, {"measurement": "Odd (% G2/% G1)", "setting": "HCT116 cells [6]; [8]", "value": "12.0 and 12.5 and 9.7"}, {"measurement": "Odd ratio", "setting": "HCT116 cells [6]; TOP alone, reference group", "value": 1.0}]}
{"smiles": "Cn1c(=O)c2c(ncn2C)n(C)c1=O", "note": "[Caffeine]", "values": [{"measurement": "inhibition of topotecan induced G2 arrest", "setting": "HCT116 cells [1]; 4 mM, HCT116", "value": "significantly inhibits topotecan induced G2 arrest"}, {"measurement": "inhibition of topotecan induced G2 arrest", "setting": "H460 cells [2]; 4 mM, H460", "value": "significantly inhibits topotecan induced G2 arrest"}, {"measurement": "sensitization of tumor to radiotherapy by inhibiting radiation induced G2 arrest", "setting": "tumor", "value": "sensitize tumor to radiotherapy"}, {"measurement": "inhibition of topotecan induced G2 arrest in tumor cells in vivo", "setting": "HCT116 cells [6]; systemic injection to mice", "value": "inhibit topotecan induced G2 arrest"}]}
